Measurements published in paper PMC10886891, “Enhanced Tumor Targeting and Antitumor Activity of Methylated β-Cyclodextrin-Threaded Polyrotaxanes by Conjugating Cyclic RGD Peptides” (Biomolecules, 2024).

How the values were obtained:
4T1 cells = assay: Autophagic cell death: viability of 4T1 cells with 3-MA; type: cell-based, murine; conditions: 2 mM 3-MA, 48 h
Description: To investigate the induction of autophagic cell death by cRGD-Me-PRXs, 4T1cells were pretreated with 2 mM 3-methyladenine (3-MA; Fujifilm Wako Pure Chemical) for 1 h, followed by treatment with cRGD-Me-PRXs (100 μM threaded β-CD) in the presence of 3-MA for 48 h at 37 °C. Cell viability was determined as described above.

[1] = among various β-CD derivatives; cited from earlier work
Text: Β-Cyclodextrin (β-CD) is a cyclic oligosaccharide comprising seven glucose units connected with α-1,4-linkages. Β-CD and its derivatives can incorporate various low-molecular-weight compounds, such as free cholesterol, into their hydrophobic cavity. Recently, the therapeutic applications of β-CD derivatives have received considerable attention, because they improve the pathology of various metabolic diseases, such as Niemann–Pick type C (NPC) disease, Alzheimer’s disease, and atherosclerosis, through the removal of excess free ch ...

Blood chemical analysis = type: in vivo, BALB/c mice; conditions: 500 mg/kg i.v., 24 h
Description: The PRXs dissolved in PBS were intravenously administered at a dose of 500 mg/kg to female BALB/c mice (8 weeks). […] Plasma levels of blood urea nitrogen (BUN), creatinine (CRE), aspartate aminotransferase (AST), alanine aminotransferase (ALT), free cholesterol (F-CHO), cholesteryl esters (E-CHO), triglycerides (TG), and glucose (GLU) were measured using a Hitachi 7180 automatic analyzer (Hitachi, Tokyo, Japan). In addition, the mice were perfused with saline, and the major organs (heart, liver, spleen, lungs, and kidneys) were collected. The organs were fixed in 10% formalin solution for 1 d and embedded in paraffin. The paraffin blocks were cut into 3 μm sections, which were successively stained with H&E solution to assess histological alterations by bright-field microscope.

[2] = system: various cells, such as normal cells and apoptosis-resistant cells; conditions: through interactions with cellular cholesterol; cited from earlier work
Text: Β-Cyclodextrin (β-CD) is a cyclic oligosaccharide comprising seven glucose units connected with α-1,4-linkages. Β-CD and its derivatives can incorporate various low-molecular-weight compounds, such as free cholesterol, into their hydrophobic cavity. […] 3-Methyladenine (3-MA) is a commonly used inhibitor of autophagy that functions by inhibiting class III phosphoinositide 3-kinase (PI3K) activity, which plays a pivotal role in autophagy induction. […] To exclude the effects of 3-MA on 4T1 cell viability, cRGD-Me-PRX-t ...

[3] = Cholesterol solubilization (phase solubility); type: physicochemical; conditions: pH 7.4, 24 h, 37 °C, n = 3
Description: Figure 2 (A) ^1H NMR spectra of Me- N3-PRX and cRGD-Me-PRX in D2O at 25 °C. (B) FT-IR spectra of Me-N3-PRX and cRGD-Me-PRX. (C) Time course of the cleavage of N-Trt end groups in Me-PRX, cRGD-Me-PRX, and cRGE-Me-PRX at pH 7.4 (open symbols) and pH 5.0 (closed symbols) at 37 °C. The data are expressed as the mean ± SD (n = 3). (D) Phase-solubility diagrams of cholesterol with Me-β-CD, cRGD-Me-β-CD, Me-PRX, cRGD-Me-PRX, and cRGE-Me-PRX at pH 7.4 (brown bars) and pH 5.0 (blue bars). The solubility of cholesterol was determined after incubation for 24 h at 37 °C. The data are expressed as the mean ± SD (n = 3; **** p < 0.0001; ns: not significant).
Another important aspect of Me-PRXs is the ability of released β-CDs to form an inclusion complex with intracellular cholesterol, because the interaction with intracellular cholesterol contributes to the induction of cell death. To assess this, the solubility of cholesterol was measured by incubating with Me-PRXs at pH 7.4 (physiological pH) and 5.0 (lysosomal pH) for 24 h was measured (Figure 2D). […] Additionally, the number of methyl groups of cRGD-Me-β-CD (12.5) was less than that of Me-β-CD (14.0), which may explain the reduced cholesterol solubilization capacity.

[4] = Biodistribution in 4T1 tumor-bearing mice; type: in vivo, BALB/c mice; conditions: 24 h after i.v., Cy5.5-labeled; 500 mg/kg (Figure 7), 300 mg/kg; n = 6
Description: Animal experiments were approved by the Institutional Animal Care and Use Committee of Tokyo Medical and Dental University. Wild-type BALB/c mice (female, 8-weeks-old) were purchased from Japan SLC (Shizuoka, Japan). Cy5.5-labeled PRXs and CDs were intravenously administered to the mice at a dose of 300 mg/kg. After 24 h, the mice were anesthetized with an intraperitoneal injection of an anesthetized solution containing medetomidine hydrochloride (0.75 mg/kg), midazolam (4 mg/kg), and butorphanol tartrate (5 mg/kg). […] The mice were then perfused with saline, and the hearts, livers, lungs, spleens, kidneys, and tumors were harvested. The collected tissues (approximately 50 mg) were homogenized using a bead beater-type homogenizer (Beads Crusher μT-12; Taitec, Saitama, Japan) at 3000 rpm for 45 s. After centrifuging the homogenates (8000 rpm, 10 min), the supernatant was collected. The fluorescence intensities of the plasma and tissue homogenates were measured using Varioskan LUX at excitation and emission wavelengths of 673 and 707 nm, respectively. The amount of accumulated PRXs in the plasma and each tissue was calculated using the standard curve of Cy5.5-labeled Me-PRXs and Me-β-CDs, and the mean percentage of the injected dose per gram of tissue (ID %/g tissue) was determined for each sample.

[5] = system: integrin αv (Itgav) mRNA in 4T1 cells; assay: Downregulation of integrin αv by siRNA (RT-PCR); type: cell-based, murine; conditions: compared with siControl; 30 nM, 24 h, normalized to Gapdh, n = 4
Description: siRNAs against murine integrin subunit alpha V (siItgav; sense: 5′-[…]-3′, antisense: 5′-[…]-3′) and Mission siRNA universal negative control were purchased from Merck. The siRNAs were transfected into 4T1 cells using the Lipofectamine 3000 Transfection Reagent (Thermo Fisher Scientific) at 30 nM for 24 h according to the manufacturer’s instructions. Total RNA was extracted from 4T1 cells using the FastGene RNA Premium Kit (Nippon Genetics, Tokyo, Japan) following the manufacturer’s instructions. The total RNA concentration was measured using a NanoDrop One spectrophotometer (Thermo Fisher Scientific). Total RNA was then converted into cDNA using ReverTra Ace qPCR RT master mix (Toyobo, Osaka, Japan). RT-PCR was performed using the Thunderbird SYBR qPCR mix (Toyobo) on a CFX Connect Real-Time System (Bio-Rad, Hercules, CA, USA). The PCR primer sequences were as follows: murine integrin subunit alpha V (Itgav), forward: 5′-[…]-3′, reverse: 5′-[…]-3′, murine glyceraldehyde 3-phosphate dehydrogenase (Gapdh) forward: 5′-[…]-3′, reverse: 5′-[…]-3′. The PCR cycling conditions included a pre-denaturation at 95 °C for 1 min, followed by 40 cycles of denaturation at 95 °C for 15 s and extension at 60 °C for 30 s. The mRNA expression levels in each sample were determined by the comparative CT (ΔΔCT) method and were normalized to the expression levels of Gapdh.

Cn1cnc(N)c2ncnc1-2 [3-MA, 3-methyladenine]
effect on 4T1 cell viability alone (4T1 cells): did not affect cell viability

Randomly methylated β-CD [Me-β-CD]
ability to form inclusion complexes with free cholesterol [1]: highest ability to form inclusion complexes with free cholesterol
hepatic and renal toxicity (Blood chemical analysis): hepatic and renal toxicities
plasma AST (Blood chemical analysis; n = 6): increased
plasma BUN (Blood chemical analysis; n = 6): increased
plasma CRE (Blood chemical analysis; n = 6): increased
apoptosis [2]: induced apoptosis
solubilization of cholesterol [3]: solubilization of cholesterol was observed
accumulation in kidney [4]: mostly accumulated in the kidney

siItgav: siRNA against murine integrin subunit alpha V; sense: 5′-GACUUAGUUGUAGGAGCUU-3′, antisense: 5′-AAGCUCCUACAACUAAGUC-3′ (chemistry not given here)
expression level of integrin αv [5]: 32.9%
